Patent US20060229438A1, “Monoclonal antibody derived peptide inhibitors for mycobacterial dna gyrase” (priority 2002, published 2006)

B1: scFv:GyrA: engineered single chain antibody fragment of MsGyrA:C3, monovalent 30 kDa polypeptide, Seq. ID #2, encoded by pVNUHMscFv (protein)
scFv: AQVKLQQSGAELVRPGASVKLSCKASGYSFTVYYIYWVKQRPGQALEWIGEINPSNGGTNFNEKFKTKATLTVDKSTSTVYMQLSSLTSEDSAVYYCTRWGLRRGFAYWGQGTTVTVSSSGGGSGGGGSGGGGSDIELTQSPKSMSMSVGERVTLSCKASENVGTHVSWYQQRPEESPKLLIYGASNRYTGVPDRFTGSGSATDFTLTISNVQAEDLADYHCGQTYSYPFTFGLGTKLEIKRAAAGAPVPYPDPLEPRAA

How the values were obtained:
[1] = molecular target: DNA gyrase from ciprofloxacin resistant M. smegmatis mc^2155 strain (Mycolicibacterium smegmatis, UniProt A0QNE0+P48354); type: biochemical
[2] = test system: DNA gyrase from ofloxacin resistant clinical isolate of M. tuberculosis (ICC-222)

Row | Molecule | susceptibility of the enzyme to ciprofloxacin [1] | IC50 ([1]; read-out: IC50 (no inhibition up to concentration)) [µM] | concentration that completely inhibited DNA gyrase [2] [nM]
1 | O=C(O)c1cn(C2CC2)c2cc(N3CCNCC3)c(F)cc2c1=O [ciprofloxacin, reference compound] | showed resistance | > 1210 | 
2 | B1 |  |  | 10
